Results published in patent US20200222391A1, “SOLID PREPARATION OF CARIPRAZINE FOR ORAL ADMINISTRATION” (Richter Gedeon Nyrt., priority 2017, published 2020).
Structures can show the parent of a compound that is named as a salt. Where two headings read alike, the source gives them in different places.

Assays:
[1] = pH-solubility of cariprazine hydrochloride at 37° C.; format: physicochemical
Description: Cariprazine salts are very well soluble in acidic environment. However, drugs, which are soluble in acidic environment can be practically insoluble in neutral or basic environment.

[2] = Caco-2 model of drug absorption (permeability); format: in vitro ADME; conditions: human, read-out: permeability directional ratio (PDR)
Procedure: In the Caco-2 model of drug absorption, the permeability coefficients of cariprazine in inward and outward directions were calculated to be 26.4.10-6 cm/sec and 51.2.10-6 cm/sec, respectively (permeability directional ratio (PDR): 1.9) (Artursson P & Karlsson J (1991). “Correlation between oral drug absorption in humans and apparent drug permeability coefficients in human intestinal epithelial (Caco-2) cells”. Biochem Biophys Res Comm 175 (3): 880-5 and internal data).

| pH value of best solubility [1] | solubility ([1]; 37 °C, pH 1, simulated gastric fluid, pH 1, read-out: Solubility) [µg/mL] | solubility ([1]; 37 °C, pH 2, simulated gastric fluid, pH 2, read-out: Solubility) [µg/mL] | solubility ([1]; 37 °C, pH 3, aqueous buffer, pH 3, read-out: Solubility) [µg/mL] | solubility ([1]; 37 °C, pH 4, aqueous buffer, pH 4, read-out: Solubility) [µg/mL] | solubility ([1]; 37 °C, pH 5, aqueous buffer, pH 5, read-out: Solubility) [µg/mL] | solubility ([1]; 37 °C, pH 5.5, aqueous buffer, pH 5.5, read-out: Solubility) [µg/mL] | solubility ([1]; 37 °C, pH 6, aqueous buffer, pH 6, read-out: Solubility) [µg/mL] | solubility ([1]; 37 °C, pH 7, aqueous buffer, pH 7, read-out: Solubility) [µg/mL] | solubility ([1]; pH 1, hydrochloride) [µg/mL] | solubility ([1]; pH 7, hydrochloride) [µg/mL] | efflux ratio [2] | SMILES |
| --- | --- | --- | --- | --- | --- | --- | --- | --- | --- | --- | --- | --- |
| ~3 | 3260 | 8930 | 11000 | 3230 | 351 | 149 | 18.8 | 1 | 3257.9 | 1.3 | – | CN(C)C(=O)N[C@H]1CC[C@H](CCN2CCN(c3cccc(Cl)c3Cl)CC2)CC1 [cariprazine hydrochloride] |
| – | – | – | – | – | – | – | – | – | – | – | 1.9 | CN(C)C(=O)N[C@H]1CC[C@H](CCN2CCN(c3cccc(Cl)c3Cl)CC2)CC1 [cariprazine, trans-N-{4-[2-[4-(2,3-dichlorophenyl)-piperazin-1-yl]-ethyl]-cyclohexyl}-N′,N′-dimethylurea] |
